In US20060246149A1, “Antimicrobial pigments” (priority 2003, published 2006):

Legend:
Assay in all cases: challenge test, germ count by Agar plates method
Assay type in all cases: cell-based
Settings in all cases: 8% aqueous suspension
Escheria coli ATCC8739 = tested on: Escheria coli ATCC8739
Method: (§1) A standard procedure to measure the anti-microbial activity of substances was used (challenge tests). A suspension of test organisms (10^5 to 10^6 germs/ml) is inoculated into a recipient containing already the substance to be tested. Samples of the inoculated suspension are taken and the number of germs is measured thanks to the Agar plates method. Germ counts is performed at t=0, t=24 h after the inoculation, t=48 h after the inoculation, t=7 days after the inoculation, t=14 days after the inoculation.
(§2) Sterile water containing 8% w/w of treated and untreated carriers were each investigated.

[1] = tested on: Pseudomonas aeruginosa ATCC 9027
Method: as §1, §2

[2] = tested on: Candida albicans ATCC 10231
Method: as §1, §2

[3] = tested on: Staphylococcus aureus ATCC 6538
Method: as §1, §2

silver oxide [0.02% Ag2O]
0 germs/ml: Germs Number/ml after 24 h (Escheria coli ATCC8739; 24 h) | Germs Number/ml after 48 h (Escheria coli ATCC8739; 48 h) | Germs Number/ml after 7 d (Escheria coli ATCC8739; 7 d) | Germs Number/ml after 14 d (Escheria coli ATCC8739; 14 d) | Germs Number/ml after 24 h ([1]; 24 h) | Germs Number/ml after 48 h ([1]; 48 h) | Germs Number/ml after 7 d ([1]; 7 d) | Germs Number/ml after 14 d ([1]; 14 d) | Germs Number/ml after 48 h ([2]; 48 h) | Germs Number/ml after 7 d ([2]; 7 d) | Germs Number/ml after 14 d ([2]; 14 d) | Germs Number/ml after 24 h ([3]; 24 h) | Germs Number/ml after 48 h ([3]; 48 h) | Germs Number/ml after 14 d ([3]; 14 d)
